Source: publication PMC3735166, “Comparative Studies on Acetylcholinesterase Characteristics between the Aphids, Sitobion avenae and Rhopalosiphum padi” (Journal of Insect Science, 2013)
Where a name gives a salt, the structure may show the parent alone. Read-outs that look alike come from different tables or passages of the source.

Key:
[1] = molecular target: T1, purified AChE from S. avenae (Sitobion avenae, UniProt Q66S75); assay: Substrate specificity and kinetic analysis of purified AChE from S. avenae; assay type: biochemical; conditions: for Vmax ± SE / Km: compound as substrate, 30°C; for Km: read-out: Km ± SE
T1 sequence (Q66S75 23-664): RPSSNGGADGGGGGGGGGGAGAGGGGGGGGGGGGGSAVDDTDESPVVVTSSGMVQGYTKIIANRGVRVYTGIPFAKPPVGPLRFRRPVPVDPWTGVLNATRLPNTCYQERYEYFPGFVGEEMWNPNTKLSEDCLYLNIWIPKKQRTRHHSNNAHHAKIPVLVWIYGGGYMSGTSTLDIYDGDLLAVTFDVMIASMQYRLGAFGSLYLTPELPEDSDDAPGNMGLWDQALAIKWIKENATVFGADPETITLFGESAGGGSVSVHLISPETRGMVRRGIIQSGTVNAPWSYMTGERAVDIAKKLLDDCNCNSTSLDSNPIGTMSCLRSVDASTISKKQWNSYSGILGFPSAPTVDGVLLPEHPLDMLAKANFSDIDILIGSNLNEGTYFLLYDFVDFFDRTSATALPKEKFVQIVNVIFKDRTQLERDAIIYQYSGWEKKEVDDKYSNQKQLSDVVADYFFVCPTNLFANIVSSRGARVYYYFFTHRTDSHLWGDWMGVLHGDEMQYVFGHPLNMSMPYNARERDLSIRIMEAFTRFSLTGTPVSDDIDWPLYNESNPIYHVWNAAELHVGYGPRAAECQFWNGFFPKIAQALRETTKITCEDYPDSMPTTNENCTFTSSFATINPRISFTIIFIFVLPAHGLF
Protocol: (§1) Purification of AChE from both aphid species was performed by affinity chromatography using procainamide as the affinity ligand. The procedure used in this study was according to the method of Gao and Zhu ([2001]) with some modifications, as follows:
(§2) Step 1: Preparation of crude extract. About 1.0 g apterous adults were homogenized in 10 mL ice-cold 0.1 M phosphate buffer (pH 7.5), containing 0.2 M NaCl and 0.5 % (v/v) Triton X-100 and three protease inhibitors (1 mM EDTA-Na2, 1 µM leupeptin, and 10 µM PMSF). The homogenate was filtered through cheesecloth and then centrifuged at 41,000 g, 4°C for 1 h. The supernatant, after being filtered through glass wool, was used as crude extract.
(§3) Step 2: Chromatography on sephadex G-25. […] The fractions (5 ml each) were collected at the flow rate of 45 mL/h at 4°C. All the fractions containing the AChE activity were collected as the enzyme resource for the next step.
(§4) Step 3: Procainamide affinity chromatography and removal of procainamide and condensation. The procainamide-based AChE affinity column was made according to the instructions from the manufacturer. […] The collected AChE dialyzed against 0.05 M, pH 7.5 phosphate buffer three times for 3 h. The enzyme was stored at 4°C and used as the enzyme source.
(§5) AChE activities were determined according to the method of Ellman et al. ([1961]) modified by Gao ([1987]), using ATCh, PrTCh, MeTCh and BuTCh as substrates. The AChE activities were determined at 6 substrate concentrations from 0.15625 to 5 mM based on the reaction at 30°C for 15 min and the reaction was stopped by the addition of 900 µL, DTNB (0.125 mM) with 40% ethanol, then the optical density (OD) was measured at 412 nm by spectrophotometer (Lambda Bio 40).
(§6) All statistical tests were performed by using SAS computer program (USA). Values of Michalelis-Menten constants (Km) and maximal velocities (Vmax) for four substrates were calculated by Enzfitter software (Biosoft, http://www.biosoft.com/).

[2] = molecular target: T2, crude extract AChE from R. padi (Rhopalosiphum padi, UniProt Q6BCH8); assay: Substrate specificity and kinetic analysis of crude extract AChE from R. padi; assay type: biochemical; conditions: compound as substrate, 30°C; for Km: read-out: Km ± SE
Protocol: as §2, §5, §6

[3] = molecular target: T3, crude extract AChE from S. avenae (Sitobion avenae, UniProt Q66S75); assay: Substrate specificity and kinetic analysis of crude extract AChE from S. avenae; assay type: biochemical; conditions: compound as substrate, 30°C; for Km: read-out: Km ± SE
T3 sequence (Q66S75 23-664): T1 sequence (Q66S75 23-664)
Protocol: as §2, §5, §6

[4] = molecular target: T4, purified AChE from R. padi (Rhopalosiphum padi, UniProt Q6BCH8); assay: Substrate specificity and kinetic analysis of purified AChE from R. padi; assay type: biochemical; conditions: for Vmax ± SE / Km: compound as substrate, 30°C; for Km: read-out: Km ± SE
Protocol: as §1, §2, §3, §4, §5, §6

[5] = molecular target: T4, purified AChE from R. padi; assay: as above; assay type: biochemical; conditions: substrate 15 mM
[6] = molecular target: T2, crude extract AChE from R. padi; assay: Inhibition of crude extract AChE from R. padi (Ellman method, 5 min preincubation); assay type: biochemical; conditions: for inhibitory percentage of AChE specific activity: inhibitor 10 µM
Protocol: as §2, §5
(§7) The value of median inhibition concentration (I50) for the inhibitors were calculated based on log (inhibitor concentration) vs. probit (percentage of inhibition) linear regression.

[7] = molecular target: T1, purified AChE from S. avenae; assay: Inhibition of purified AChE from S. avenae (Ellman method, 5 min preincubation); assay type: biochemical
Protocol: as §1, §2, §3, §4, §5, §7

[8] = molecular target: T4, purified AChE from R. padi; assay: Inhibition of purified AChE from R. padi (Ellman method, 5 min preincubation); assay type: biochemical; conditions: for inhibitory percentage of AChE specific activity: inhibitor 10 µM
Protocol: as §1, §2, §3, §4, §5, §7

[9] = molecular target: T3, crude extract AChE from S. avenae; assay: Inhibition of crude extract AChE from S. avenae (Ellman method, 5 min preincubation); assay type: biochemical; conditions: for I50 times higher in S. avenae than in R. padi: ratio of I50 values of Table 4
Protocol: as §2, §5, §7

[10] = molecular target: T2, crude extract AChE from R. padi; conditions: comparison of the two aphid species; ref Lu and Gao 2009; cited from earlier work
S. avenae and R. padi = conditions: comparison of the two aphid species, ref Lu and Gao 2009, cited from earlier work
[11] = preincubation 5 min at 30°C, mean of three determinations, read-out: I50 ± SE (median inhibition concentration)
[12] = S. avenae, preincubation 5 min at 30°C, mean of three determinations, read-out: I50 ± SE (median inhibition concentration)

T2 sequence (Q6BCH8 18-652): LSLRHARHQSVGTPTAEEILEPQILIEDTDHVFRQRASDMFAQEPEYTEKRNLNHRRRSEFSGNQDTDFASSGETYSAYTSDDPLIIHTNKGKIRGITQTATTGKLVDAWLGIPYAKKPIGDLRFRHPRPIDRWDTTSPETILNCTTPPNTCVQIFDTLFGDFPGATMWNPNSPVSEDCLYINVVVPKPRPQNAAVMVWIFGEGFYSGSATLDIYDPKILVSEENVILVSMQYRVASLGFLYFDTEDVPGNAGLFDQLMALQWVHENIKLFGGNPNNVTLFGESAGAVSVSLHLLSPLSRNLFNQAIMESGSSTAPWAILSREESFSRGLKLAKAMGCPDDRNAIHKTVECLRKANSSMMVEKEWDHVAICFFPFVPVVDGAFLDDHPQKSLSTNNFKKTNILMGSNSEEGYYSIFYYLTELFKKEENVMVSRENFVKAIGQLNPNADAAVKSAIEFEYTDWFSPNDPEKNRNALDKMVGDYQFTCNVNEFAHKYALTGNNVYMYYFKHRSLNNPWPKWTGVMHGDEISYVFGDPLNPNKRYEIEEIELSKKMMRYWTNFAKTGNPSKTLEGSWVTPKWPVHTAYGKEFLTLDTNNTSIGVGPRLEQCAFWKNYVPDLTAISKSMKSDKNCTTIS
T4 sequence (Q6BCH8 18-652): as above

Row | Structure (SMILES) | Vmax ± SE [1] | Km [1] | Vmax ± SE [2] | Km [2] | Vmax ± SE [3] | Km [3] | Vmax ± SE [4] | Km [4] | further results
1 | CC(=O)SCC[N+](C)(C)C.[I-] [ATCh, Acetylthiocholine iodide] | 152.75 ± 3.63 nmol/min/mg protein | 2280 ± 120 µM | 1.27 ± 0.05 nmol/min/mg protein | 360 ± 50 µM | 1.16 ± 0.11 nmol/min/mg protein | 650 ± 190 µM | 37.58 ± 1.01 nmol/min/mg protein | 2180 ± 130 µM | substrate concentration at which substrate inhibition was observed [1]: > 10 mM; substrate concentration at which substrate inhibition was observed [4]: > 10 mM; specific activity of purified AChE [5]: 20.3 nmol/min/mg
2 | C=CC[N+](C)(C)c1ccc(CCC(=O)CCc2ccc([N+](C)(C)CC=C)cc2)cc1.[Br-].[Br-] [BW284C51, 1,5-bis(4-allyldimethylammoniumphenyl)-pentan-3-one dibromide] |  |  |  |  |  |  |  |  | inhibitory percentage of AChE specific activity [6]: about 50%; IC50 [6, 11]: 9.7 ± 1 µM; inhibitory percentage of AChE specific activity ([7]; S. avenae, inhibitor 10 µM): > 80%; IC50 [7, 12]: 1 ± 0.13 µM; I50 fold lower in S. avenae than in R. padi ([7]; from I50 values of Table 5): 0.4 fold; inhibitory percentage of AChE specific activity [8]: > 80%; IC50 [8, 11]: 2.57 ± 0.34 µM; IC50 [9, 12]: 24.7 ± 4.9 µM; I50 times higher in S. avenae than in R. padi [9]: 2.5 times
3 | CCCC(=O)SCC[N+](C)(C)C.[I-] [BuTCh, butyrylthiocholine iodide] | 9.09 ± 0.14 nmol/min/mg protein | 1690 ± 60 µM | 4.12 ± 1.34 nmol/min/mg protein | 5340 ± 2790 µM | 11.88 ± 3.88 nmol/min/mg protein | 15100 ± 6210 µM | 2.17 ± 0.09 nmol/min/mg protein | 670 ± 80 µM | 
4 | CNC(=O)Oc1ccc2c(c1)[C@]1(C)CCN(C)[C@@H]1N2C [Eserine, eserine hemisulfate salt] |  |  |  |  |  |  |  |  | inhibitory percentage of AChE specific activity [6]: about 50%; inhibitory percentage of AChE specific activity [8]: more than 90%; I50 times higher in S. avenae than in R. padi [9]: 4.1 times
5 | CC(=O)SC(C)C[N+](C)(C)C (stereo not drawn) [MeTCh, acetyl-(β-methyl) thiocholine] | 118.32 ± 5.64 nmol/min/mg protein | 2230 ± 230 µM | 1.10 ± 0.07 nmol/min/mg protein | 290 ± 80 µM | 1.01 ± 0.10 nmol/min/mg protein | 400 ± 140 µM | 31.58 ± 1.03 nmol/min/mg protein | 2450 ± 170 µM | substrate concentration at which substrate inhibition was observed [1]: > 10 mM; substrate concentration at which substrate inhibition was observed [4]: > 10 mM; specific activity of purified AChE [5]: 17.7 nmol/min/mg
6 | Cc1nc(N(C)C)nc(OC(=O)N(C)C)c1C [Pirimicarb] |  |  |  |  |  |  |  |  | sensitivity of AChE to pirimicarb, R. padi versus S. avenae [10]: significantly higher in R. padi than in S. avenae; susceptibility / tolerance to pirimicarb in bioassays, S. avenae versus R. padi (S. avenae and R. padi): higher for S. avenae than for R. padi; susceptibility / tolerance to pirimicarb in bioassays, S. avenae versus R. padi (S. avenae and R. padi; listed as pirimicarb): R. padi was more susceptible than S. avenae
7 | CCC(=O)SCC[N+](C)(C)C.[I-] [PrTCh, propionylthiocholine iodide] | 94.01 ± 4.41 nmol/min/mg protein | 930 ± 120 µM | 0.76 ± 0.03 nmol/min/mg protein | 180 ± 40 µM | 1.04 ± 0.15 nmol/min/mg protein | 570 ± 260 µM | 24.24 ± 0.30 nmol/min/mg protein | 850 ± 30 µM | 
